Results taken from a melting point compilation (Tetko et al.; mined from patent text by program, amines drawn as free bases though some values may be those of a salt).

For CC(=O)Oc1c(C2CCN(CCCCNC(=O)c3ccc(NC(=O)c4ccc(Cl)cc4)cc3)CC2)ccc2c1CCCC2, which melting point is on record?
Its melting point is 254 °C.

For Clc1ccc(C(C2=NCCN2)c2nccs2)cc1 (stereo not given), which melting point is on record?
Its melting point is 145 to 147 °C.

For O=C(C=CCN1CCN(CC(=O)OCc2ccccc2)CC1)Nc1cc2c(Nc3ccc(F)c(Cl)c3)ncnc2cc1OCC1CC1, which melting point is on record?
The melting point was 174 °C.

For NS(=O)(=O)c1ccccc1N1CCCC1, which melting point is on record?
Its melting point is 78 °C.

For CC(C)Nc1cccnc1N1CCN(C(=O)c2ccc(C(=O)NCCCO)cc2)CC1, which melting point is on record?
Its melting point is 110 to 111 °C.

Which melting point does the source give for COC(=O)C(C)(SC)c1ccc(N2C(=O)c3ccccc3C2=O)c(Cl)c1 (stereo not given) here?
The melting point was 141 to 142 °C.

Which melting point does the source give for CCOC(=O)c1cn(C2CC2)c2c(F)c(F)c(F)c(NCc3ccccc3)c2c1=O here?
The melting point was 134 to 135 °C.

Which melting point does the source give for CCCCCC(C)C(C)c1cc(O)c2c(c1)OC(C)(C)C1=C2CN(CC(N)=O)CC1 (stereo not given) here?
Its melting point is 165 to 168 °C.

With FC(F)(F)c1ccc2c(c1)nc(/C=C/c1ccccc1)n2-c1ccccn1 as the compound, how does the melting point read?
Its melting point is 144 to 145 °C.

With CN1Cc2c(c3cc(CCCN4CCN(c5nsc6ccccc56)CC4)ccc3[nH]c2=O)C1 as the compound, how does the melting point read?
Its melting point is 206 to 208 °C.

With CN1CCCC(C(=O)N2CCC(c3[nH]nc4c3C(=O)c3c(NC(=O)NN5CCOCC5)cccc3-4)CC2)C1 (stereo not given) as the compound, how does the melting point read?
Its melting point is 158 to 160 °C.

With CC(C)(C)c1cc(-c2nc3ccc(O)cc3o2)ccc1O as the compound, how does the melting point read?
The melting point was 220 to 222 °C.

For COC(=O)C(C(=O)OC)C(C#Cc1ccccc1)c1ccc(OC)c(OC2CCCC2)c1 (racemic), which melting point is on record?
The melting point was 66 to 67 °C.

Which melting point does the source give for O=C(Cl)c1ccc(-c2ccc(C(=O)Cl)cn2)nc1 here?
Its melting point is 216 to 217 °C.

Which melting point does the source give for COc1cc(-n2c(C#N)c(C#N)n(C(F)F)c2=O)c(F)cc1Br here?
Its melting point is 150 °C.

Which melting point does the source give for CC(=O)NCP(=O)(O)O here?
The melting point was 171 to 175 °C.

With CCC1(C)SC(NC)=NN1C(=O)C(C)(C)C (stereo not given) as the compound, how does the melting point read?
The melting point was 132 to 136 °C.

With COC(=O)c1ccc(OC)c2oc(/C=C\C(=O)O)cc12 as the compound, how does the melting point read?
Its melting point is 175 to 178 °C.

Which melting point does the source give for CCCCCC=Cc1cccc2c(=O)[nH]c(-c3cc(S(=O)(=O)N4CCOCC4)ccc3OCCC)nc12 here?
The melting point was 112 °C.

For CCN1C(=O)C(C)(C)C(=O)N(C)c2cc(CN(CCn3ccc4oc(C)cc4c3=O)Cc3cccnc3C#N)ccc21, which melting point is on record?
Its melting point is 114 to 118 °C.

Which melting point does the source give for CC1=NC2CN=C(c3ccccc3)c3cc(Cl)ccc3C2C(=O)N1 (stereo not given) here?
The melting point was 155 to 160 °C.

Which melting point does the source give for COC(=O)c1ccc(C(=O)c2ccccc2)cc1 here?
Its melting point is 133 to 135 °C.

For O=C(Nc1cc(-c2c(-c3ccc(F)cc3)nc3cccnn23)ccn1)c1ccc(Cl)nc1, which melting point is on record?
Its melting point is 247 to 248 °C.

Which melting point does the source give for CC1(C)C(=O)Nc2cc3[nH]cnc3cc21 here?
Its melting point is 278 to 280 °C.

With CC(=O)NC[C@H]1CN(c2cc(F)c(N3CCC(n4ncn(C)c4=S)CC3)c(F)c2)C(=O)O1 as the compound, how does the melting point read?
Its melting point is 168 to 170 °C.

With CC(C)Oc1ccc(CCCCOc2cc(CCC(=O)O)n(-c3ccccc3)n2)c(Oc2ncc(C(F)(F)F)cc2Cl)c1 as the compound, how does the melting point read?
Its melting point is 75 to 77 °C.

Which melting point does the source give for C=CCC(=O)c1cnn(-c2ccccn2)c1S(N)(=O)=O here?
The melting point was 140 to 142 °C.

With CCN1CCCC1CNC(=O)c1cc(S(N)(=O)=O)cc2c1OCCO2 (stereo not given) as the compound, how does the melting point read?
Its melting point is 160 to 161 °C.

For CCOC(=O)Cc1c(C)n(Cc2cccc(O)c2)c2ccc(OC)cc12, which melting point is on record?
Its melting point is 114 to 116 °C.

Which melting point does the source give for Cc1cccn2c(=O)c(C(=O)NC3CCCC3)cnc12 here?
Its melting point is 170 to 171 °C.

For ClC1=Nc2ccccc2Oc2c1csc2Cl, which melting point is on record?
Its melting point is 144 to 145 °C.

Which melting point does the source give for Cc1nnc2n1-c1sc(CCc3ccc(O)cc3)cc1C(c1ccccc1Cl)=NC2 here?
The melting point was 100 °C.

With CCCCC(=O)c1cc2n(c1)CCc1ccccc1C2=O as the compound, how does the melting point read?
The melting point was 135 to 136 °C.

Which melting point does the source give for CC1(C)SCNC1C(=O)O (stereo not given) here?
The melting point was 209 to 210 °C.

With Cc1nc(C)c(Cl)c(NCc2ccc(Oc3ccc4ncc([N+](=O)[O-])n4n3)c(O)c2)n1 as the compound, how does the melting point read?
Its melting point is greater than 114 °C.

With COc1cc(Nc2c(C#N)cnc3cc(N4CCC(N5CCCC5)CC4)c(OC)cc23)c(Cl)cc1Cl as the compound, how does the melting point read?
The melting point was 225 to 227 °C.

With CCCCCCC(C(=O)N1CCCC1CC(=O)O)n1cnc2cc(-c3ccccc3-c3nn[nH]n3)ccc21 (stereo not given) as the compound, how does the melting point read?
The melting point was 122 to 125 °C.

Which melting point does the source give for NCC1Cc2cccc(-c3ccc4ccccc4c3)c2O1 (stereo not given) here?
Its melting point is 135 to 140 °C.

With NC(=O)c1sc2nccc(N3CCN(c4ccccn4)CC3)c2c1N as the compound, how does the melting point read?
The melting point was 266 to 270 °C.

For CCN1c2ccccc2NC(=O)c2cccnc21, which melting point is on record?
Its melting point is 210 to 220 °C.

For Cc1nc2cc3c(cc2s1)C1(CO3)C(=O)N(Cc2ccccn2)c2ccccc21 (stereo not given), which melting point is on record?
The melting point was 249 to 250 °C.

With CC(C)c1cc(O)cc2c1C(=O)N(CBr)S2(=O)=O as the compound, how does the melting point read?
Its melting point is 167 to 169 °C.

For CCN(CC)Cc1cc(NC(C)=O)c2c(c1O)CCCC2, which melting point is on record?
Its melting point is 157 to 159 °C.

For Cn1c(=O)c2cccnc2n(-c2cccc([N+](=O)[O-])c2)c1=O, which melting point is on record?
The melting point was 234 to 235 °C.

For FC(F)c1nc2ccccc2n1-c1nc(Nc2ccccn2)nc(N2CCOCC2)n1, which melting point is on record?
Its melting point is 230 to 232 °C.

Which melting point does the source give for COc1cc(C)c(CCCCCCCCCC(=O)CCCCCC(=O)O)c(O)c1OC here?
Its melting point is 55 to 57 °C.

With CCC(CC)(C(N)=O)c1ccc(Cl)cc1 as the compound, how does the melting point read?
The melting point was 107 to 109 °C.

Which melting point does the source give for C=CCCc1sc(-c2nccs2)c2c1C(=O)CC(C)(C)C2 here?
The melting point was 62 to 65 °C.

Which melting point does the source give for CC(C)(N)CNC(N)=O here?
Its melting point is 58 to 62 °C.

Which melting point does the source give for COc1ccc(C2=NN(c3ccc(C(=O)Nc4ccc(C5=NNC(=O)CC5C)cc4)cc3)C(=O)C3CC=CCC23)cc1OC (stereo not given) here?
Its melting point is 249 to 250 °C.

With CN(C)c1nc2cc(NC(=O)c3c(C(=O)N4CCCC4)cnn3C)ccn2n1 as the compound, how does the melting point read?
Its melting point is 199 to 201 °C.

With Cc1cc(C#N)sc1-c1ccc2c(c1)C(C)(C)OC(C(F)(F)F)N2 (stereo not given) as the compound, how does the melting point read?
Its melting point is 97 to 98 °C.

Which melting point does the source give for CCCCCCCCCCCCCC(C)S(=O)(=O)NC(=O)Nc1c(C(C)C)cccc1C(C)C (stereo not given) here?
The melting point was 65 to 75 °C.

Which melting point does the source give for O=S(=O)(c1ccc(F)cc1)N1CCOCC1 here?
The melting point was 106 to 107 °C.

With Nc1ccc(Oc2ccc(O)c(C(=O)O)c2)cc1 as the compound, how does the melting point read?
The melting point was 223 to 224 °C.

For Cc1ccccc1Cn1c(=O)on(C(=O)N(c2ccc(Cl)cc2)C(C)C)c1=O, which melting point is on record?
The melting point was 90 to 91 °C.

Which melting point does the source give for CC(C)n1c(=O)nc(-c2ccc3c(c2)CCC3)c2cc3c(cc21)OCO3 here?
Its melting point is 73 to 75 °C.

For COc1ccc(N2CCN(CCC3OCCc4cc(C#N)ccc43)CC2)cc1 (stereo not given), which melting point is on record?
Its melting point is 86 to 88 °C.

Which melting point does the source give for Cn1nc(-c2cnc(N)nc2-c2ccco2)ccc1=O here?
The melting point was 234 °C.

Which melting point does the source give for CC(C)(C)C1=CC(=Nc2ccc(C(=O)O)cc2)C=C(C(C)(C)C)C1=O here?
Its melting point is 305 to 309 °C.

Which melting point does the source give for CC1(C)c2ccccc2N2Cc3cc(N=Nc4ccc([N+](=O)[O-])cc4)ccc3OC21C (stereo not given) here?
The melting point was 156 °C.

For NC(=O)C=Cc1cccc(Cl)c1, which melting point is on record?
The melting point was 180 °C.

With COc1c(Cl)ccc(-c2cc(N)c(Cl)c(C(=O)NOC(C)C)n2)c1F as the compound, how does the melting point read?
The melting point was 190 to 193 °C.

With O=[N+]([O-])c1c(O)nc(N2CCSCC2)nc1O as the compound, how does the melting point read?
The melting point was 220 to 223 °C.

For Cc1nc(N2CCN(Cc3ccccc3)C2=O)sc1C(=O)NCc1ccc(F)cc1F, which melting point is on record?
Its melting point is 157 to 158 °C.

Which melting point does the source give for N#Cc1ncccc1Oc1ccccc1Cl here?
The melting point was 90 to 92 °C.

With CC(C)(C)c1ccn(-c2ccc(C(=O)N3Cc4cccnc4Nc4ccccc43)c(C(F)(F)F)c2)n1 as the compound, how does the melting point read?
The melting point was 136 to 140 °C.

With CCCn1c(=O)c2[nH]c(C3CCOC3)nc2n(CCC)c1=O (stereo not given) as the compound, how does the melting point read?
The melting point was 177 to 178 °C.

With CCCCCc1cc(C(=O)O)c(C)o1 as the compound, how does the melting point read?
Its melting point is 47 to 48 °C.

With O=C(NCCCCCCCNC(=O)c1ccc2c(c1)OCO2)c1ccc2c(c1)OCO2 as the compound, how does the melting point read?
The melting point was 151 to 152 °C.
